Patent publication US20040044006A1, “Methods of use of quinolone compounds against pneumococcal and haemophilus bacteria” (priority 1999, published 2004)
Converted amounts (≈) assume the structure as drawn. Read-outs that look alike come from different tables or passages of the source. Values belong to the compound of their own block, whether it stands above or below them.

Key:
[1] = tested on: quinolone-resistant Haemophilus influenzae strains; assay: Microdilution MIC determination in HTM for quinolone-resistant Haemophilus influenzae strains; format: cell-based
Experimental: Inocula were prepared from chocolate agar plates incubated for a full 24 hours by the direct colony suspension method as follows: In a tube of Mueller-Hinton broth (Difco), an organism suspension was made to a density of a 0.5 McFarland standard (1×10^8 CFU/ml). The latter inoculum was diluted in sterile saline such that final organisms suspensions in trays yielded colony counts of 3-8×10^5 CFU/ml. Frozen microdilution trays were obtained from MicroMedia Systems, Inc. (Cleveland, Ohio, USA). Each tray contained all antimicrobials prepared in freshly made HTM. Wells were inoculated with 100 μl suspensions and incubated in ambient air at 35° C. for 20-24 hours. The lowest drug concentration showing no growth was read as the MIC. Standard quality control strains, including H. influenzae ATCC 49766, H. influenzae ATCC 49247, Staphylococcus aureus ATCC 29213 and Escherichia coli ATCC 25922 were included with each run.

[2] = tested on: pneumococcal strains; assay: Microbroth dilution MICs of strains tested by time-kill and PAE; format: cell-based; settings: Streptococcus pneumoniae, read-out: Microdilution MIC
Experimental: (§1) Agar dilution methodology was performed on 234 strains as described previously (M. R. Jacobs, Clin. Infect. Dis. 15:119-127, 1992; Jacobs, et al., Rev. Med. Microbiol. 6:77-93, 1995), using Mueller-Hinton agar (BBL Microbiology Systems, Cockeysville, Md.) supplemented with 5% sheep blood. Broth MICs for 12 strains tested by time-kill and 6 tested by PAE were performed according to NCCLS recommendations (Methods for Dilution Antimicrobial Susceptibility Tests for Bacteria that Grow Aerobically, 3rd Edition, NCCLS, Villanova, Pa.) using cation-adjusted Mueller-Hinton broth with 5% lysed defibrinated horse blood. Standard quality control strains, including Streptococcus pneumoniae ATCC 49619, were included in each run of agar and broth dilution MICs.

[3] = tested on: quinolone susceptible pneumococci (ciprofloxacin MICs ≦4.0 μg/ml); assay: Agar dilution MICs of 207 quinolone susceptible pneumococcal strains; format: cell-based, Streptococcus pneumoniae; settings: Streptococcus pneumoniae, agar dilution; for MIC90: read-out: MIC90; for MIC: read-out: MIC range
Experimental: All susceptible, and some intermediate and resistant strains, were recent U.S. isolates. The remainder of intermediate and resistant strains were isolated in South Africa, Spain, France, Central and Eastern Europe, and Korea. […] Additionally these strains were tested for mutations in parC, gyrA, parE, and gyrB (Pan, et al., Antimicrob. Agents Chemother. 40:2321-2326, 1996) and for efflux mechanism (Brenwald, et al., Antimicrob. Agents Chemother. 42:2032-2035, 1998). For time-kill studies, 4 penicillin susceptible, 4 intermediate and 4 resistant strains (2 quinolone resistant) were tested, while for PAE studies 5 quinolone susceptible and 1 resistant strains were studied.
as §1

[4] = strain 1, mutations S133-A N138-S, None, S84-L
[5] = strain 2, mutations NONE, S458-L, S84-F, None
[6] = strain 3, mutations S84-I, None, S84-L
[7] = strain 4, mutations D83-N, S458-S-T459, S84-F D88-N, Q468-R
[8] = strain 5, mutations E88-K, G405-S, S84-Y, None
[9] = strain 6, mutations S84-R, D420-N, S84-L A117-E, None
[10] = strain 7, mutations S84-R, D420-N, S84-L A117-E, None
[11] = strain 8, mutations S84-R, D420-N, S84-L A117-E, None
[12] = strain 9, mutations S84-R N138-S, S458-A S474-N, S84-F D88-Y, None
[13] = strain 1, GyrA S84→L, ParC S133→A N138→S, GyrB None, ParE None
[14] = strain 2, GyrA S84→F, ParC None, GyrB None, ParE S458→L
[15] = strain 3, GyrA S84→L, ParC S84→I, GyrB None, ParE None
[16] = strain 4, GyrA S84→F D88→N, ParC D83→N, GyrB None, ParE T459→S
[17] = strain 5, GyrA S84→Y, ParC E88→K, GyrB Q468→R, ParE G405→S
[18] = strain 6, GyrA S84→L A117→E, ParC S84→R, GyrB None, ParE D420→N
[19] = strain 7, GyrA S84→L A117→E, ParC S84→R, GyrB None, ParE D420→N
[20] = strain 8, GyrA S84→L A117→E, ParC S84→R, GyrB None, ParE D420→N
[21] = strain 9, GyrA S84→F D88→Y, ParC S84→R N138→S, GyrB None, ParE S458→A S474→N

SMILES: C[C@H]1COc2c(N3CCN(C)CC3)c(F)cc3c(=O)c(C(=O)O)cn1c23 [Levo]
MIC [1, 4]: 0.5 µg/mL (≈ 1.38 µM)
MIC [1, 5]: 0.25 µg/mL (≈ 0.692 µM)
MIC [1, 6]: 1 µg/mL (≈ 2.77 µM)
MIC [1, 7]: 0.5 µg/mL (≈ 1.38 µM)
MIC [1, 8]: 1 µg/mL (≈ 2.77 µM)
MIC [1, 9]: 2 µg/mL (≈ 5.53 µM)
MIC [1, 10]: 2 µg/mL (≈ 5.53 µM)
MIC [1, 11]: 2 µg/mL (≈ 5.53 µM)
MIC [1, 12]: 4 µg/mL (≈ 11.1 µM)

MIC50 ([3]; Penicillin I strains): 0.25 µg/mL (≈ 0.748 µM)
MIC90 ([3]; Penicillin I strains): 1 µg/mL (≈ 2.99 µM)
MIC ([3]; Penicillin I strains): 0.125 to 1 µg/mL (≈ 0.374 to 2.99 µM)
MIC50 ([3]; Penicillin R strains): 4 µg/mL (≈ 12 µM)
MIC90 ([3]; Penicillin R strains): 4 µg/mL (≈ 12 µM)
MIC ([3]; Penicillin R strains): 2 to 16 µg/mL (≈ 5.98 to 47.8 µM)
MIC50 ([3]; Penicillin S strains): 0.016 µg/mL (≈ 0.0478 µM)
MIC90 ([3]; Penicillin S strains): 0.03 µg/mL (≈ 0.0897 µM)
MIC ([3]; Penicillin S strains): 0.008 to 0.06 µg/mL (≈ 0.0239 to 0.179 µM)
SMILES: CC1(C)S[C@@H]2[C@H](NC(=O)Cc3ccccc3)C(=O)N2[C@H]1C(=O)O [Penicillin, penicillin G]
MIC ([2]; strain 1 (S) penicillin susceptible): 0.06 µg/mL (≈ 0.179 µM)
MIC ([2]; strain 2 (S) penicillin susceptible): 0.03 µg/mL (≈ 0.0897 µM)
MIC ([2]; strain 3 (S) penicillin susceptible, quinolone-resistant): 0.016 µg/mL (≈ 0.0478 µM)
MIC ([2]; strain 4 (S) penicillin susceptible, quinolone-resistant): 0.016 µg/mL (≈ 0.0478 µM)
MIC ([2]; strain 5 (I) penicillin intermediate): 0.25 µg/mL (≈ 0.748 µM)
MIC ([2]; strain 6 (I) penicillin intermediate): 0.25 µg/mL (≈ 0.748 µM)
MIC ([2]; strain 7 (I) penicillin intermediate): 1 µg/mL (≈ 2.99 µM)
MIC ([2]; strain 8 (I) penicillin intermediate): 0.5 µg/mL (≈ 1.5 µM)
MIC ([2]; strain 9 (R) penicillin resistant): 4 µg/mL (≈ 12 µM)
MIC ([2]; strain 10 (I)): 2 µg/mL (≈ 5.98 µM)
MIC ([2]; strain 11 (R) penicillin resistant): 4 µg/mL (≈ 12 µM)
MIC ([2]; strain 12 (R) penicillin resistant): 4 µg/mL (≈ 12 µM)

SMILES: C[C@@H]1CN(c2c(F)c(N)c3c(=O)c(C(=O)O)cn(C4CC4)c3c2F)C[C@H](C)N1 [Spa]
MICs [1, 13]: 0.25 µg/mL
MICs [1, 14]: 0.25 µg/mL
MICs [1, 15]: 0.5 µg/mL
MICs [1, 16]: 0.25 µg/mL
MICs [1, 17]: 1 µg/mL
MICs [1, 18]: 1 µg/mL
MICs [1, 19]: 1 µg/mL
MICs [1, 20]: 1 µg/mL
MICs [1, 21]: 8 µg/mL

SMILES: C[C@@H]1CN(c2c(F)c(N)c3c(=O)c(C(=O)O)cn(C4CC4)c3c2F)C[C@H](C)N1 [Spar]
MIC [1, 4]: 0.25 µg/mL (≈ 0.637 µM)
MIC [1, 5]: 0.25 µg/mL (≈ 0.637 µM)
MIC [1, 6]: 0.5 µg/mL (≈ 1.27 µM)
MIC [1, 7]: 0.25 µg/mL (≈ 0.637 µM)
MIC [1, 8]: 1 µg/mL (≈ 2.55 µM)
MIC [1, 9]: 1 µg/mL (≈ 2.55 µM)
MIC [1, 10]: 1 µg/mL (≈ 2.55 µM)
MIC [1, 11]: 1 µg/mL (≈ 2.55 µM)
MIC [1, 12]: 8 µg/mL (≈ 20.4 µM)

SMILES: N[C@@H]1[C@H]2CN(c3nc4c(cc3F)c(=O)c(C(=O)O)cn4-c3ccc(F)cc3F)C[C@@H]12 [Tro]
MICs [1, 13]: 1 µg/mL
MICs [1, 14]: 0.25 µg/mL
MICs [1, 15]: 1 µg/mL
MICs [1, 16]: 0.5 µg/mL
MICs [1, 17]: 1 µg/mL
MICs [1, 18]: 4 µg/mL
MICs [1, 19]: 4 µg/mL
MICs [1, 20]: 4 µg/mL
MICs [1, 21]: 8 µg/mL

SMILES: N[C@@H]1[C@H]2CN(c3nc4c(cc3F)c(=O)c(C(=O)O)cn4-c3ccc(F)cc3F)C[C@@H]12 [Trova]
MIC [1, 4]: 1 µg/mL (≈ 2.4 µM)
MIC [1, 5]: 0.25 µg/mL (≈ 0.6 µM)
MIC [1, 6]: 1 µg/mL (≈ 2.4 µM)
MIC [1, 7]: 0.5 µg/mL (≈ 1.2 µM)
MIC [1, 8]: 1 µg/mL (≈ 2.4 µM)
MIC [1, 9]: 4 µg/mL (≈ 9.61 µM)
MIC [1, 10]: 4 µg/mL (≈ 9.61 µM)
MIC [1, 11]: 4 µg/mL (≈ 9.61 µM)
MIC [1, 12]: 8 µg/mL (≈ 19.2 µM)
